Laboratory results as given in patent US20050080054A1, “Treating androgen decline in aging male (ADAM)-associated conditions with SARMS” (priority 2002, published 2005).

Assays:
Type in all cases: in vivo, rat
[1] = system: androgen-responsive tissues (prostate, seminal vesicles, levator ani muscle); test: Dose response of androgenic and anabolic activities (Emax, ED50) compared to TP; details: for Emax (% of Intact Control): doses 0.1-1.0 mg/day; for Relative Afficacy / Relative Potency: relative to TP
Description: FIG. 6: Dose response Curves. Rats were left untreated, or treated with 0.1, 0.3, 0.5, 0.75 and 1.0 mg/day Compound VI, Compound VII or testosterone propionate (TP), and the weight of androgen-responsive tissues (prostate—FIG. 6A, semimal vesicles—FIG. 6B and levator ani muscle—FIG. 6C) was determined. The results are plotted as percentage of the intact control.
(§1) Compound VI and Compound VII were synthesized and characterized in the laboratory of Dr. Duane Miller at the University of Tennessee, Memphis, Tenn. Male Sprague-Dawley rats were purchased from Harlan Biosciences (Indianapolis, Ind.). The animals were maintained on a 12-h cycle of light and dark with food and water available ad libitum. All animal studies were reviewed and approved by the Animal Care and Use Committee of The Ohio State University, and conformed to the Principles of Laboratory Animal Care (NIH publication #85-23, revised 1985). Immature male Sprague-Dawley rats weighing 187 to 214 g were randomly distributed into 9 groups of 5 animals. One day before the initiation of drug treatment, groups 4 through 6 and groups 7 through 9 received unilateral or bilateral orchidectomy, respectively, via a midline scrotal incision. […] All drugs given to animals were freshly prepared as solutions in polyethylene glycol 300 (PEG 300). Groups 4 and 7 received treatment with vehicle alone (i.e., PEG 300). Animals in groups 3, 6, and 9 received testosterone propionate (TP, 0.5 mg/day) via implantation of subdermal osmotic pumps (Model 2002, Durect Corporation, Palo Alto, Calif.). Animals in groups 2, 5, and 8 received Compound VI or Compound VII (0.5 mg/day) via implantation of subdermal osmotic pumps. After 14 days of drug treatment, rats were weighed, anesthetized, and sacrificed. Blood samples were collected by venipuncture of the abdominal aorta. Plasma samples were analyzed for testosterone, FSH, LH and osteocalcin. Testosterone concentrations were measured by AniLytics Inc. (Gaithersburg, Md.). FSH and LH levels were measured by the National Hormone and Peptide Program (Dr. A F Parlow, UCLA, CA). Plasma osteocalcin levels were determined using a commercially available rat osteocalcin EIA kit from Biomedical Technologies Inc. (Stoughton, Mass.). The ventral prostates, seminal vesicles, and levator ani muscle were removed and weighed. Osmotic pumps were also removed from animals to check for correct pump operation. The weights of all organs were normalized to body weight, and analyzed for any statistically significant differences between groups using single-factor ANOVA with the alpha value set a priori at p<0.05. The weights of prostates and seminal vesicles were used as indices for evaluation of androgenic activity, and the levator ani muscle weight was used to evaluate the anabolic activity. Statistical analyses of parameters from complete blood count or serum chemical profiling, wherever applicable, were performed by single-factor ANOVA with the alpha value set a priori at p<0.05.

[2] = system: female rats after ovariectomy; test: Bone mineral content (DEXA) in female rats after ovariectomy
Description: One hundred ten female rats were assigned to one of eleven treatment groups. Groups 1-8 were ovariectomized on day one of the study. Groups 9-11 were intact animals. Groups 1-6 received Compound VI by daily subcutaneous injection at doses of 0.1, 0.3, 0.5, 0.75, 1.0, and 3 mg/day, respectively. Groups 7 and 11 received dihydrotestosterone (DHT) at a dose of 1 mg/day. Groups 8 and 9 were ovariectomized and intact control groups, respectively. Group 10 received Compound VI at a dose of 1.0 mg/day. All animals were treated for 120 days. Bone mineral content (BMC) was determined using dual energy x-ray absorptiometry (DEXA) on days 1, 30, 60, 90, and 120.

[3] = Plasma testosterone levels in male rats of varying hormonal status; details: 0.5 mg/day; for Plasma testosterone levels: osmotic pump, 14 days, n = 5
Source text: as §1

[4] = Plasma FSH levels in male rats of varying hormonal status; details: 0.5 mg/day; for Plasma FSH levels: 14 days, n = 5
Source text: as §1

[5] = Plasma LH levels in male rats of varying hormonal status; details: 0.5 mg/day; for Plasma LH levels: 14 days, n = 5
Source text: as §1

[6] = Plasma osteocalcin levels in male rats of varying hormonal status; details: 0.5 mg/day; for Plasma osteocalcin levels: 14 days, n = 5
Source text: as §1

[7] = system: androgen-responsive tissues (prostate, seminal vesicles, levator ani muscle); test: Androgenic and anabolic activity: weight of androgen-responsive tissues in intact, hemi-orchidectomized and castrated rats; details: 0.5 mg/day, 14 days, n = 5
Description: FIG. 3: Androgenic and Anabolic activity of Compound VI and Compound VII in rats. Male rats with normal testicular function (no surgical manipulation) were left untreated (Intact), treated with compound VI (0.5 mg/day), compound VII (0.5 mg/day) or testosterone proprionate (TP, 0.5 mg/day), and the weight of androgen-responsive tissues (prostate—FIG. 3A, semimal vesicles—FIG. 3B, and levator ani muscle—FIG. 3C) was determined.
FIG. 4: Androgenic and Anabolic activity of Compound VI and Compound VII in rats. Male rats received unilateral orchidectomy (Hemi-orchidectomized) and were left untreated (Intact), treated with vehicle alone (PEG 300), Compound VI (0.5 mg/day), Compound VII (0.5 mg/day), or testosterone proprionate (TP, 0.5 mg/day), and the weight of androgen-responsive tissues (prostate—FIG. 4A, semimal vesicles—FIG. 4B, and levator ani muscle—FIG. 4C) was determined.
FIG. 5: Androgenic and Anabolic activity of Compound VI and Compound VII in rats. Male rats received bilateral orchidectomy (Castrated) and were left untreated (Intact), treated with vehicle alone (PEG 300), Compound VI (0.5 mg/day), Compound VII (0.5 mg/day), or testosterone proprionate (TP, 0.5 mg/day), and the weight of androgen-responsive tissues (prostate—FIG. 5A, semimal vesicles—FIG. 5B, and levator ani muscle—FIG. 5C) was determined.
as §1

[8] = system: myosin heavy chain (MHC) IIb mRNA; test: Myosin heavy chain (MHC) IIb mRNA expression in masseter muscle by RT-PCR; details: masseter muscle of intact female rats; untreated control = 100%
Source text: MHC is the predominant protein in skeletal muscle encoded by a multigene family expressed in a tissue-specific and developmentally regulated manner [Adams et al 1999]. In steady state, mRNA expression usually parallels the pattern of MHC protein expression. Because transcription of MHC mRNA occurs in advance of MHC protein translation, and the increased sensitivity of RT-PCR compared to western blotting, rapid changes in mRNA expression can be detected and used to analyze the subtle dynamic effects of muscle anabolism [Wright et al 1997].
The masseter muscle dissected from untreated intact female rats was set as the control level (representing 100%) of MHC IIb expression (FIG. 7A). Intact female rats treated with androgens were evaluated against the untreated controls for the effect of treatment on MHC IIb from masseter.

[9] = TP statement for castrated male rats

Compound: CC(=O)Nc1ccc(OC[C@](C)(O)C(=O)Nc2ccc([N+](=O)[O-])c(C(F)(F)F)c2)cc1 [GTx-017]
- ED50 ([1]; Anabolic, Levator Ani Muscle): 0.14 ± 0.01 mg/day
- Emax (% of Intact Control) ([1]; Anabolic, Levator Ani Muscle): 101.0 ± 1.0 % of Intact Control
- Relative Afficacy ([1]; Anabolic, Levator Ani Muscle): 0.97
- Relative Potency ([1]; Anabolic, Levator Ani Muscle): 1.07
- ED50 ([1]; Androgenic, Prostate): 0.43 ± 0.01 mg/day
- Emax (% of Intact Control) ([1]; Androgenic, Prostate): 35.2 ± 0.4 % of Intact Control
- Relative Afficacy ([1]; Androgenic, Prostate): 0.29
- Relative Potency ([1]; Androgenic, Prostate): 0.30
- ED50 ([1]; Androgenic, Seminal Vesicle): 0.55 ± 0.02 mg/day
- Emax (% of Intact Control) ([1]; Androgenic, Seminal Vesicle): 28.5 ± 0.8 % of Intact Control
- Relative Afficacy ([1]; Androgenic, Seminal Vesicle): 0.40
- Relative Potency ([1]; Androgenic, Seminal Vesicle): 0.22

Compound: C[C@](O)(COc1ccc(F)cc1)C(=O)Nc1ccc([N+](=O)[O-])c(C(F)(F)F)c1 [GTx-014]
- ED50 ([1]; Anabolic, Levator Ani Muscle): 0.44 ± 0.01 mg/day
- Emax (% of Intact Control) ([1]; Anabolic, Levator Ani Muscle): 74.9 ± 0.4 % of Intact Control
- Relative Afficacy ([1]; Anabolic, Levator Ani Muscle): 0.72
- Relative Potency ([1]; Anabolic, Levator Ani Muscle): 0.34
- ED50 ([1]; Androgenic, Prostate): 0.42 ± 0.04 mg/day
- Emax (% of Intact Control) ([1]; Androgenic, Prostate): 14.5 ± 0.7 % of Intact Control
- Relative Afficacy ([1]; Androgenic, Prostate): 0.12
- Relative Potency ([1]; Androgenic, Prostate): 0.31
- ED50 ([1]; Androgenic, Seminal Vesicle): 0.38 ± 0.26 mg/day
- Emax (% of Intact Control) ([1]; Androgenic, Seminal Vesicle): 12.7 ± 3.1 % of Intact Control
- Relative Afficacy ([1]; Androgenic, Seminal Vesicle): 0.18
- Relative Potency ([1]; Androgenic, Seminal Vesicle): 0.32

Compound: C[C@]12CCC(=O)C[C@@H]1CC[C@@H]1[C@@H]2CC[C@]2(C)[C@@H](O)CC[C@@H]12 [DHT, dihydrotestosterone, reference compound]
- potency comparison Compound VI versus DHT ([2]; ovariectomized female rat bone model): less potent than Compound VI
- increase in BMC ([2]; ovariectomized female rats, 1.0 mg/day, treated for 120 days (group 5; DHT 1 mg/day)): 15%

Compound: CCC(=O)O[C@H]1CC[C@H]2[C@@H]3CCC4=CC(=O)CC[C@]4(C)[C@H]3CC[C@]12C [TP, testosterone propionate, reference compound]
- plasma testosterone levels versus controls ([3]; castrated male rats): higher plasma testosterone levels
- Plasma testosterone levels ([3]; castrated male rats): 0.258 ± 0.103 ng/mL
- Plasma testosterone levels ([3]; hemi-orchidectomized male rats): 2.366 ± 1.232 ng/mL
- Plasma testosterone levels ([3]; intact male rats): 1.482 ± 0.416 ng/mL
- effect on plasma FSH levels [4, 9]: significant decrease
- Plasma FSH levels ([4]; castrated male rats): 58.0 ± 6.9 ng/mL
- Plasma FSH levels ([4]; hemi-orchidectomized male rats): 17.2 ± 3.3 ng/mL
- Plasma FSH levels ([4]; intact male rats): 11.4 ± 1.7 ng/mL
- effect on plasma LH levels [5, 9]: significant decrease
- Plasma LH levels ([5]; castrated male rats): 6.702 ± 1.513 ng/mL
- Plasma LH levels ([5]; hemi-orchidectomized male rats): 0.124 ± 0.092 ng/mL
- Plasma LH levels ([5]; intact male rats): 0.168 ± 0.173 ng/mL
- effect on plasma osteocalcin levels ([6]; Compound VI statement for hemi-orchidectomized and castrated animals): no effect
- Plasma osteocalcin levels ([6]; castrated male rats): 65.976 ± 11.213 ng/mL
- Plasma osteocalcin levels ([6]; hemi-orchidectomized male rats): 77.236 ± 24.418 ng/mL
- Plasma osteocalcin levels ([6]; intact male rats): 74.952 ± 15.399 ng/mL
- Levator Ani weight ([7]; castrated rats): 87.27 ± 10.25 % of intact control
- Prostate weight ([7]; castrated rats): 76.78 ± 10.43 % of intact control
- Seminal Vesicle weight ([7]; castrated rats): 63.48 ± 17.05 % of intact control
- Levator Ani weight ([7]; hemi-orchidectomized rats): 98.63 ± 10.47 % of intact control
- Prostate weight ([7]; hemi-orchidectomized rats): 98.57 ± 7.98 % of intact control
- Seminal Vesicle weight ([7]; hemi-orchidectomized rats): 114.19 ± 23.81 % of intact control
- Levator Ani weight ([7]; intact rats): 95.61 ± 9.34 % of intact control
- Prostate weight ([7]; intact rats): 97.45 ± 10.82 % of intact control
- Seminal Vesicle weight ([7]; intact rats): 103.95 ± 13.23 % of intact control
- ED50 ([1]; Anabolic, Levator Ani Muscle): 0.15 ± 0.03 mg/day
- Emax (% of Intact Control) ([1]; Anabolic, Levator Ani Muscle): 104.2 ± 10.1 % of Intact Control
- Relative Afficacy ([1]; Anabolic, Levator Ani Muscle): 1.00
- Relative Potency ([1]; Anabolic, Levator Ani Muscle): 1.00
- ED50 ([1]; Androgenic, Prostate): 0.13 ± 0.03 mg/day
- Emax (% of Intact Control) ([1]; Androgenic, Prostate): 120.6 ± 13.4 % of Intact Control
- Relative Afficacy ([1]; Androgenic, Prostate): 1.00
- Relative Potency ([1]; Androgenic, Prostate): 1.00
- ED50 ([1]; Androgenic, Seminal Vesicle): 0.12 ± 0.02 mg/day
- Emax (% of Intact Control) ([1]; Androgenic, Seminal Vesicle): 70.0 ± 18.8 % of Intact Control
- Relative Afficacy ([1]; Androgenic, Seminal Vesicle): 1.00
- Relative Potency ([1]; Androgenic, Seminal Vesicle): 1.00
- MHC type IIb transcription, of untreated control [8]: 133%
